{"source": "patent US20070232625A1", "about": "“Fungicidal Mixtures” (priority 2004, published 2007)", "tested_on": "Alternaria solani", "experiment": "Activity against early blight of tomato caused by Alternaria solani (protective spray test on potted tomato plants)", "type": "in vivo", "settings": "tomato cultivar Golden Princess, evaluated after 5 days", "procedure": "The active compounds, separately or jointly, were prepared as a stock solution comprising 0.25% by weight of active compound in acetone or DMSO. 1% by weight of the emulsifier Uniperol® EL (wetting agent having emulsifying and dispersant action based on ethoxylated alkylphenols) was added to this solution, and the mixture was diluted with water to the desired concentration.\nLeaves of potted plants of the cultivar “Golden Princess” were sprayed to runoff point with an aqueous suspension having the concentration of active compound stated below. The next day, the leaves were infected with an aqueous spore suspension of Alternaria solani in a 2% strength biomalt solution having a density of 0.17×10^6 spores/ml. The plants were then placed in a water-vapor-saturated chamber at temperatures between 20 and 22° C. After 5 days, the disease on the untreated but infected control plants had developed to such an extent that the infection could be determined visually in %.\nThe visually determined percentages of infected leaf areas were converted into efficacies in % of the untreated control:\nThe efficacy (E) is calculated as follows using Abbot's formula: E=(1−α/β)·100 • α corresponds to the fungal infection of the treated plants in % and • β corresponds to the fungal infection of the untreated (control) plants in %\nAn efficacy of 0 means that the infection level of the treated plants corresponds to that of the untreated control plants; an efficacy of 100 means that the treated plants were not infected.\nThe expected efficacies of mixtures of active compounds were determined using Colby's formula (Colby, S. R. “Calculating synergistic and antagonistic responses of herbicide combinations”, Weeds, 15, 20-22, 1967) and compared with the observed efficacies.\nColby's formula: E=x+y−x·y/100 • E expected efficacy, expressed in % of the untreated control, when using the mixture of the active compounds A and B at the concentrations a and b • x efficacy, expressed in % of the untreated control, when using the active compound A at the concentration a\ny efficacy, expressed in % of the untreated control, when using the active compound B at the concentration b", "data": [{"smiles": "CC1CCN(c2c(-c3c(F)cc(F)cc3F)c(Cl)nc3ncnn23)CC1", "note": "[I, 5-chloro-7-(4-methylpiperidin-1-yl)-6-(2,4,6-trifluorophenyl)-[1,2,4]triazolo[1,5-a]pyrimidine]", "values": [{"measurement": "Efficacy in % of the untreated control", "setting": "1.25 ppm active compound in the spray liquor", "result": 0, "unit": "%"}, {"measurement": "Efficacy in % of the untreated control", "setting": "5 ppm active compound in the spray liquor, infected next day", "result": 22, "unit": "%"}]}, {"smiles": "CO/N=C(\\Cc1cccnc1)c1cc(Cl)cc(Cl)c1", "note": "[II (pyrifenox), 1-(3,5-dichlorophenyl)-2-pyridin-3-ylethanone-O-methyloxime]", "values": [{"measurement": "Efficacy in % of the untreated control", "setting": "1 ppm active compound in the spray liquor", "result": 0, "unit": "%"}, {"measurement": "Efficacy in % of the untreated control", "setting": "6.25 ppm active compound in the spray liquor", "result": 0, "unit": "%"}]}]}
